We go through one molecule from paper PMC12217481, “Structure and mechanism of taniborbactam inhibition of the cefepime-hydrolyzing, partial R2-loop deletion Pseudomonas-derived cephalosporinase variant PDC-88” (Antimicrobial Agents and Chemotherapy, 2025).

≈ marks a conversion by molar mass, not a printed value. Read-outs that look alike come from different tables or passages of the source.

In one assay the test system is P. aeruginosa isolates. The following applies: 200 well-characterized P. aeruginosa isolates; cited from earlier work.
Assay [1] concerns E. coli DH10B/pTU625 (PDC-88). The assay can be described thus: Broth microdilution MIC, isogenic E. coli expressing PDC-88. Format: cell-based, Escherichia coli. The following applies: for MIC: Escherichia coli. The protocol:
(§1) Genetic constructs used for minimum inhibitory concentration (MIC) testing were designed by Venatorx Pharmaceuticals and codon-optimized for use in E. coli and synthesized by Twist Bioscience as described previously ([9]). […] DH10B cells expressing an empty pET24a(+) vector (Novagen) were also grown, and the plasmid purified. Both pCR4-TOPO-PDC-88 and empty pET24a(+) were cut with BamHI and NdeI, the digests run on low-melting point agarose gels, and the bands of interest excised and ligated to yield a PDC-88 expressing pET24a(+) construct with the His tag removed. The PDC-3 expression construct was created in a similar manner but starting with a previously described pBC SK(−) vector ([42]). The final plasmids were grown in E. coli DH10B cells and purified.
(§2) Modal broth microdilution MICs (or median broth microdilution MICs where appropriate) were determined in accordance with Clinical and Laboratory Standards Institute (CLSI) M07 guidelines ([43]). Isogenic E. coli DH10B cells expressing the abovementioned plasmid-encoded PDC constructs were used. […] CLSI quality control strains Escherichia coli NCTC 13353, E. coli ATCC 35218, and Klebsiella pneumoniae ATCC 700603 were used during testing ([24]).
On the technique in general: In broth dilution the organism is exposed to a series of concentrations in liquid medium.

Another assay has as its target T1, PDC-3 (Pseudomonas aeruginosa, UniProt P24735, T105A).
T1 construct: The PDC-3 expression construct was created in a similar manner but starting with a previously described pBC SK(−) vector; made in house; host or cells: E. coli BL21-CodonPlus (DE3)-RP, pET24a(+)
The assay can be described thus: Timed ESI-MS of acyl-enzyme formation, PDC-3. In kind it is biochemical. The settings on record: timed ESI-MS, 1 to 30 min (ATM to 60 min). The protocol: Timed ESI-MS experiments allow tracking of the reaction over time and determination of product modification, enabling the elucidation of mechanistic detail. Time courses were collected for both PDC-3 and PDC-88 with FEP (Fig. 4), CAZ (Fig. S1), TOL (Fig. S2), and ATM (Fig. S3). Substrate modification (here, loss of the R2 group) was determined based on differences between masses of apo and acyl-enzyme peaks (Fig. S4). […] Based on the differences in mass between the apo enzyme peaks, the acyl-enzyme peaks, and the molecular masses of each substrate, the mass of the adducts was determined and used to predict any portion of the substrate molecule that might be lost during the reaction (Fig. S4). As expected ([26][–][28]), all three cephalosporin antibiotics (FEP, CAZ, and TOL) lost their R2 groups during the reaction, while ATM (the sole monobactam) maintained its initial mass.
Five micrograms of PDC-3 or PDC-88 was incubated at the indicated molar ratio (1:2 to 1:100 PDC:β-lactam) in a total volume of 20 µL in 1× PBS at pH 7.4 at room temperature for the duration of the indicated time points. Reactions were quenched with the addition of 10 µL acetonitrile and added to 1 mL of 0.1% formic acid in water.
Data were collected using a Waters Synapt G2-Si quadrupole time-of-flight (Q-TOF) mass spectrometer and Waters Acquity UPLC BEH C18 1.7 µm column (2.1 by 100 mm). MassLynx V4.1 was used to deconvolute protein peaks. The tune settings for each sample were as follows: capillary voltage of 3.5 kV, sampling cone voltage of 35 V, source offset of 35 V, source temperature of 100°C, desolvation temperature of 500°C, cone gas flow rate of 100 L/h, desolvation gas flow rate of 800 L/h, and nebulizer bar at 6.0. Mobile phase A was 0.1% formic acid in water. Mobile phase B was 0.1% formic acid in acetonitrile. The mass accuracy of this system is ±5 Da.

In assay [2] the test system is E. coli DH10B/pTU606 (PDC-1). The assay can be described thus: Broth microdilution MIC, isogenic E. coli expressing PDC-1. Format: cell-based. The following applies: Escherichia coli. The protocol:
as §1, §2

In assay [3] the test system is E. coli DH10B/pTU626 (PDC-89). The assay can be described thus: Broth microdilution MIC, isogenic E. coli expressing PDC-89. The settings on record: Escherichia coli. In kind it is cell-based. The protocol: as §1, §2
In assay [4] the test system is E. coli DH10B/pTU501 (vector). The assay can be described thus: Broth microdilution MIC, isogenic E. coli empty vector control. Format: cell-based. The settings on record: Escherichia coli. The method, then:
as §1, §2

Assay [5] concerns E. coli DH10B/pTU627 (PDC-90). The assay can be described thus: Broth microdilution MIC, isogenic E. coli expressing PDC-90. Format: cell-based. The following applies: Escherichia coli. The method, then: as §1, §2

T1 sequence (P24735 27-397 T105A): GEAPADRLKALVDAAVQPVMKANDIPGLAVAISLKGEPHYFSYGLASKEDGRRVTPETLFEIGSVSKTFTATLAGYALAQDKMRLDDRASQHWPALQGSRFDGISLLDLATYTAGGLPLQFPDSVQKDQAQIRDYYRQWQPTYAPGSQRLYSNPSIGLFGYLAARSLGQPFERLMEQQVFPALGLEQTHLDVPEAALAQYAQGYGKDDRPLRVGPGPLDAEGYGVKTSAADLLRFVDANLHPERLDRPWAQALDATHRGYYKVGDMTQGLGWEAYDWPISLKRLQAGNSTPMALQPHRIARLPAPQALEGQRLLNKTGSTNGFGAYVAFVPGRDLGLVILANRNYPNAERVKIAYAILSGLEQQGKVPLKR

The MIC is the smallest concentration in the dilution series that meets the test's criterion for growth inhibition. Take `CO/N=C(\C(=O)N[C@@H]1C(=O)N2C(C(=O)[O-])=C(C[N+]3(C)CCCC3)CS[C@H]12)c1csc(N)n1` [FEP, cefepime]: the susceptibility of isolates in the assay on P. aeruginosa isolates is on record as 1.5%. The MIC in assay [1] (read-out: MIC FEP AVI) came out at 0.25 µg/mL (≈ 0.52 µM); in assay [1] (read-out: MIC FEP TZB) it was 16 µg/mL (≈ 33.3 µM); in assay [1] (E. coli DH10B/pTU625 (PDC-88), FEP with TAN at constant 4 µg/mL, read-out: MIC FEP TAN), 0.25 µg/mL (≈ 0.52 µM); in assay [1] (E. coli DH10B/pTU625 (PDC-88), read-out: MIC FEP Alone), 32 µg/mL (≈ 66.6 µM); in assay [2] (read-out: MIC FEP TZB) it was 2 µg/mL (≈ 4.16 µM); in assay [2] (E. coli DH10B/pTU606 (PDC-1), read-out: MIC FEP Alone), 2 µg/mL (≈ 4.16 µM). For the same molecule, the MIC in assay [3] (read-out: MIC FEP AVI) came out at 0.25 µg/mL (≈ 0.52 µM); in assay [3] (read-out: MIC FEP TZB) it was 16 µg/mL (≈ 33.3 µM); in assay [3] (E. coli DH10B/pTU626 (PDC-89), FEP with TAN at constant 4 µg/mL, read-out: MIC FEP TAN), 0.25 µg/mL (≈ 0.52 µM); in assay [3] (E. coli DH10B/pTU626 (PDC-89), read-out: MIC FEP Alone) it was 32 µg/mL (≈ 66.6 µM); in assay [4] (read-out: MIC FEP AVI), 0.12 µg/mL (≈ 0.25 µM); in assay [4] (read-out: MIC FEP Alone), 0.12 µg/mL (≈ 0.25 µM). Besides, the MIC in assay [4] (read-out: MIC FEP TAN) amounted to 0.12 µg/mL (≈ 0.25 µM); in assay [4] (read-out: MIC FEP TZB), 0.12 µg/mL (≈ 0.25 µM); in assay [5] (read-out: MIC FEP AVI) it was 0.5 µg/mL (≈ 1.04 µM); in assay [5] (read-out: MIC FEP TZB) it was 32 µg/mL (≈ 66.6 µM); in assay [5] (E. coli DH10B/pTU627 (PDC-90), FEP with TAN at constant 4 µg/mL, * median value reported, read-out: MIC FEP TAN), 0.5 µg/mL (≈ 1.04 µM); in assay [5] (E. coli DH10B/pTU627 (PDC-90), read-out: MIC FEP Alone), 64 µg/mL (≈ 133 µM). Further, the “increase of cefepime MIC, PDC-88 compared to PDC-3” value in assay [1] ({}) is reported as 16 fold. Also, the “acyl-enzyme complex formation and deacylation” value on PDC-3 is “did not form an acyl-enzyme complex”.
